The values below come from PubChem BioAssay AID686967 (The Scripps Research Institute Molecular Screening Center, 2013).

Activity calls are given as the source filed them. No rule for the calls is given here.

The test has as its target methionyl-tRNA synthetase (Trypanosoma brucei brucei). In words: T. brucei MetRS inhibitors, late-stage follow-up, biochemical, luminescence, dose response (AID 686967). The following applies: recombinant T. brucei MetRS, luminescence (ATP depletion).

In the case of `O=C(NCc1nc2ccccc2[nH]1)C1=C[C@@H](c2ccc3c(c2)OCO3)C[C@@H](OCCCCO)O1`, the IC50 was 1.1 µM.

Turning to `COc1ccc2[nH]c3nc(SCC(=O)Nc4ccc5c(c4)OCO5)nnc3c2c1`, the IC50 was 0.603 µM.

Consider `Clc1ccc(-c2nnc(SCc3nc4ccccc4[nH]3)o2)c(Cl)c1`, for which the IC50 was 0.604 µM.

`CCCCCCCCCC1NC(C(=O)O)Cc2c1[nH]c1ccccc21` (centres undefined): the IC50 is 4.11 µM.

Turning to `O=C(CN1CCSC1=NCc1ccccc1)c1ccc(Cl)c(Cl)c1`, the half-maximal inhibitory concentration (IC50) is 2.22 µM.

Consider `O=C(NCc1nc2ccccc2[nH]1)C1=C[C@H](c2ccc(Br)cc2)C[C@H](OCCCCO)O1`, for which the concentration for half-maximal inhibition (IC50) is 1.58 µM.

On to `O=C(N/C(=C\c1cccnc1)c1nc2ccccc2[nH]1)c1cccc(Br)c1`, for which the IC50 was 3.2 µM.

In the case of `CC(C)(C)[C@H]1C=C(C(=O)NCc2nc3ccccc3[nH]2)O[C@@H](OCc2ccc(CO)cc2)C1`, the IC50 is 2.83 µM.

With `CC(=O)c1c[nH]c(C(=O)NCc2cccc(C(F)(F)F)c2)c1`, the 50% inhibitory concentration (IC50) is 1.04 µM.

Regarding `O=C(NCc1nc2ccccc2[nH]1)C1=C[C@H](C2CC2)C[C@H](OCc2ccc(CO)cc2)O1`, the concentration for half-maximal inhibition (IC50) was 6.5 µM.

For `O=C(CC=NOCc1ccc([N+](=O)[O-])cc1)Nc1ccc(Cl)cc1`, the IC50 is 1.08 µM.

Take `O=C(NCc1nc2ccccc2[nH]1)C1=C[C@H](c2ccc3c(c2)OCO3)C[C@H](OCCCCO)O1`: the IC50 was 3.04 µM.

Take `C[C@H](O)[C@@H]1C(=O)N2CCc3c([nH]c4ccccc34)[C@@H]2C[C@@H]1N(C)Cc1ccc2c(c1)OCO2`: the IC50 is 0.297 µM.

On to `O=C(NCc1nc2ccccc2[nH]1)C1=C[C@@H](C2CC2)C[C@@H](OCc2ccc(CO)cc2)O1`, for which the IC50 is 1.5 µM.

On to `COc1ccccc1-n1c(SCC(=O)Nc2ccc(Cl)cc2)nc(O)c(Cc2ccccc2)c1=O`, for which the IC50 was 3.81 µM.

In the case of `CN(Cc1cc(Cl)cc(Cl)c1)[C@H]1C[C@H]2c3[nH]c4ccccc4c3CCN2C(=O)[C@H]1CO`, the IC50 was 0.586 µM.

For `O=C(Nc1ccc(F)c(Cl)c1)C1CC(=O)n2c(nc3ccccc32)N1` (centres undefined), the IC50 was 1.59 µM.

On to `Cc1ccc(NC(=O)CN(C)C(=O)CCSc2ccc(F)cc2)cc1`, for which the IC50 is 3.47 µM.

As to `Cc1[nH]c2ccc(Br)cc2c(=O)c1CN1CCCCCC1`, the IC50 is 4.21 µM.

On to `CC(CC(=O)Nc1cccc(Br)c1)=NNC(=O)c1ccc(O)cc1O`, for which the IC50 is 0.949 µM.

Regarding `CC(C)(C)[C@@H]1C=C(C(=O)NCc2nc3ccccc3[nH]2)O[C@H](OCc2ccc(CO)cc2)C1`, the concentration for half-maximal inhibition (IC50) was 3.39 µM.

With `O=C(NCCc1nc2ccccc2[nH]1)c1ccc(Cl)c([N+](=O)[O-])c1`, the IC50 is 0.147 µM.

As to `O=C(CC=NOCc1ccc([N+](=O)[O-])cc1)Nc1ccc(Br)cc1`, the IC50 is 1.43 µM.

As for `COc1cccc(NC(=O)CSc2nnc3c(n2)[nH]c2ccc(C)cc23)c1`, the half-maximal inhibitory concentration (IC50) was 0.0441 µM.

Regarding `COc1ccc(OCC(O)CNC(=O)Nc2ccc(Cl)cc2)cc1` (centres undefined), the IC50 is 5.54 µM.

With `COc1ccccc1NS(=O)(=O)c1cccc(NC(=O)Nc2ccccc2)c1`, the 50% inhibitory concentration (IC50) is 0.6 µM.

Take `O=C(CC(=O)Nc1cccc(Cl)c1)NN=Cc1ccccc1`: the IC50 is 3.07 µM.

Take `O=C(Cn1cnc2ccccc21)Nc1cccc([N+](=O)[O-])c1`: the half-inhibitory concentration (IC50) is 1.3 µM.

Take `Oc1c(Cl)cc(Cl)cc1CNc1nc2ccccc2[nH]1`: the IC50 was 0.429 µM.

On to `O=C(NCc1nc2ccccc2[nH]1)C1=C[C@@H](c2ccc(Br)cc2)C[C@@H](OCc2ccc(CO)cc2)O1`, for which the IC50 was 1.06 µM.

On to `CCO[C@@H]1OC(C(=O)NCc2nc3ccccc3[nH]2)=C[C@H](c2ccc(Br)cc2)[C@H]1CCCO`, for which the IC50 entry is “inactive”.

For the compound `O=C(NCc1nc2ccccc2[nH]1)C1=C[C@@H](c2ccc(Br)cc2)C[C@@H](OCCCCO)O1`, the IC50 was 0.674 µM.

On to `CCOC(=O)N1CCC(Nc2c(Nc3ccc(F)cc3)c(=O)c2=O)CC1`, for which the 50% inhibitory concentration (IC50) was 6.35 µM.

On to `O=C(CCC(=O)Nc1cccc([N+](=O)[O-])c1)NN=Cc1cccs1`, for which the IC50 is 3.56 µM.

With `Brc1cnc2nc(SCc3nc4ccccc4[nH]3)[nH]c2c1`, the half-inhibitory concentration (IC50) was 2.41 µM.

Turning to `O=C(NNC(=O)c1ccc(-n2cncn2)c([N+](=O)[O-])c1)c1ccc(Cl)cc1`, the 50% inhibitory concentration (IC50) is 2.85 µM.

For the compound `O=C(Cn1cc(C(=O)C(=O)N2CCOCC2)c2ccccc21)Nc1cccc(C(F)(F)F)c1`, the concentration for half-maximal inhibition (IC50) is 0.172 µM.

Turning to `CN(CC(=O)Nc1ccc(Cl)cc1)C(=O)c1ccc(-n2cncn2)c([N+](=O)[O-])c1`, the 50% inhibitory concentration (IC50) is 0.845 µM.

On to `O=C(NCc1nc2ccccc2[nH]1)C1=C[C@@H](c2csc3ccccc23)C[C@@H](OCCCCO)O1`, for which the IC50 was 2.33 µM.

Regarding `COc1ccc(CNC(=O)CSc2nnc3c(n2)[nH]c2ccc(F)cc23)cc1`, the IC50 is 0.755 µM.

As to `Clc1ccc(OCCSCc2nc3ccccc3[nH]2)cc1`, the half-inhibitory concentration (IC50) was 7.54 µM.

As for `O=C(NCc1nc2ccccc2[nH]1)C1=C[C@H](c2csc3ccccc23)C[C@H](OCCCCO)O1`, the half-maximal inhibitory concentration (IC50) was 0.739 µM.

Consider `O=C(NCc1nc2ccccc2[nH]1)C1=C[C@H](c2ccc(Br)cc2)C[C@H](OCc2ccc(CO)cc2)O1`, for which the IC50 is 2.4 µM.

As for `O=C1CC(N(CCc2ccccc2)C(=S)Nc2ccccc2)C(=O)N1c1ccc(Br)cc1` (centres undefined), the half-maximal inhibitory concentration (IC50) was 0.438 µM.

For the compound `O=C1CC(SCc2nc3ccccc3[nH]2)C(=O)N1c1cccc(Cl)c1` (centres undefined), the IC50 result is “inactive”.

With `O=C1[C@@H]2Cc3c([nH]c4ccccc34)C(c3cccc([N+](=O)[O-])c3)N2C(=O)CN1CCCO` (some centres undefined), the IC50 was 0.474 µM.

On to `O=C(NCc1nc2ccccc2[nH]1)C1=C[C@H](c2ccccc2)C[C@H](OCc2ccc(CO)cc2)O1`, for which the IC50 was 6.86 µM.

For the compound `CCO[C@H]1OC(C(=O)NCc2nc3ccccc3[nH]2)=C[C@@H](c2ccc(Br)cc2)[C@@H]1CCCO`, the IC50 was 6.25 µM.

Consider `CN1CC(=O)N2C(c3cccc([N+](=O)[O-])c3)c3[nH]c4ccccc4c3C[C@H]2C1=O` (some centres undefined), for which the IC50 is 0.338 µM.

In the case of `O=C(NCc1nc2ccccc2[nH]1)C1=C[C@@H](c2ccccc2)C[C@@H](OCc2ccc(CO)cc2)O1`, the IC50 is 1.58 µM.

For the compound `CC(=O)c1ccc(N2CCN(C(=O)CCCn3c(=O)[nH]c4ccc(Br)cc4c3=O)CC2)cc1`, the IC50 is 0.577 µM.

In the case of `CC(C)OCCCN1CC(=O)N2C(c3cccc([N+](=O)[O-])c3)c3[nH]c4ccccc4c3C[C@H]2C1=O` (some centres undefined), the IC50 is 0.641 µM.

On to `O=C(C[C@H]1C(=O)N(Cc2ccccc2)C[C@@H]1c1ccc(Br)cc1)Nc1ccc(Br)cc1`, for which the IC50 is 1.95 µM.

`O=C(NNC(=O)c1cc(-c2ccc(Cl)c(Cl)c2)nc2ccccc12)Nc1ccccc1`: the IC50 was 1.2 µM.
